The values below come from patent US20190262457A1, “NOVEL ALKYLATING AGENT” (CHIBA-PREFECTURE, priority 2016, published 2019).

pIC50: −log10 of the molar value.

Assay [1] has as its system MIA PaCa-2 cells. Description: Cytotoxicity test by WST assay, IC50 24 hours after administration. The format is cell-based, human. As to conditions: MIA-PaCa2 cells, WST-8. How it is done:
From the cell lines mentioned above, a large intestine cancer cell line SW480 was used as cells expressing PD-1, a large intestine cancer cell line RKO was used as cells expressing PD-L1, and a malignant melanoma cell line A2058 and a pancreatic cancer cell line MIA PaCa-2 were used as cells expressing CTLA-4. The cells of each line were inoculated at 3000 cells/well to a 96-well microplate and cultured overnight. On the next day, the cells were treated with CCC07-01 having a concentration of 0.1, 1, 10, 30, 100, 300, or 1000 nM (1 μM) for 24 hours. Then, WST-8 reagent was added to each well using Cell counting kit-8, and the mixture was reacted for 2 hours. Then, the cell count was calculated at a wavelength of 450 nm by the colorimetric analysis method using a microplate reader. The method for calculating the cell count involved: 1) obtaining the mean value of a medium alone, 2) subtracting the mean value of the medium from each well, 3) obtaining the mean value of DMSO, 4) dividing the medium mean value-subtracted value by the mean value of DMSO and then multiplying by 100, and 5) obtaining the mean value of each treatment group and a standard deviation, and preparing a graph. IC50 was calculated according to the following expression: IC50=10(LOG(A/B)×(50−C)/(D−C)+LOG(B) wherein A: a higher concentration of two concentrations sandwiching 50%, B: a lower concentration of two concentrations sandwiching 50%, C: the rate of inhibition at B, and D: the rate of inhibition at A.
The cells used in the experiment were RKO (large intestine cancer), SW480 (large intestine cancer), A2058 (malignant melanoma), and MIA PaCa-2 (pancreatic cancer).

The subject of assay [2] is PD-L1 gene. Put plainly: Experiment to silence PD-L1 gene (RT-PCR / real-time PCR), CCC07-01. As to conditions: RKO cells, 10 nM, 24 hours. The format is cell-based, human. The procedure: RKO cells were cultured in a 6-well plate. On the next day, the cells were treated with 0, 1, 10, or 100 nM CCC07-01 for 24 hours. The cells were collected, and total RNA was extracted therefrom. The extraction employed RNeasy Plus Mini Kit (Qiagen N.V., CA). Next, cDNA was prepared by reverse transcription with the extracted RNA as a template according to Super Script VILO cDNA Synthesis kit (Invitrogen Corp., CA). RT-PCR was performed with the cDNA as a template under the following conditions: the conditions for PD-L1 involved denaturation at 95° C. and then 25 cycles each involving 95° C. for 30 seconds, 60° C. for 30 seconds, and 72° C. for 30 seconds, followed by elongation reaction at 72° C. for 5 minutes. For a control, RT-PCR of GAPDH was performed using the same cDNA as above. The conditions for GAPDH involved denaturation at 95° C. and then 22 cycles each involving 95° C. for 30 seconds, 55° C. for 30 seconds, and 72° C. for 30 seconds, followed by elongation reaction at 72° C. for 5 minutes.
Each RT-PCR product was electrophoresed on 2% agarose and then stained with ethidium bromide. qPCR was further performed. […] A relative expression level was quantified with GAPDH as a control.

Assay [3] concerns CTLA-4 gene. Put plainly: Experiment to silence CTLA-4 gene (semi-quantitative RT-PCR), CCC07-01. As to conditions: A2058 cells, 10 nM, 24 hours. Type of assay: cell-based, human. The procedure: A2058 or MIA PaCa-2 cells were cultured in a 6-well plate. On the next day, the cells were treated with 0, 1, or 10 nM CCC07-01 for 24 hours. The cells were collected, and total RNA was extracted therefrom. The extraction employed RNeasy Plus Mini Kit (Qiagen N.V., CA). Next, cDNA was prepared by reverse transcription with the extracted RNA as a template according to Super Script VILO cDNA Synthesis kit (Invitrogen Corp., CA). RT-PCR was performed with the cDNA as a template under the following conditions: the conditions involved denaturation at 95° C. for 2 minutes and then 33 cycles each involving 95° C. for 30 seconds, 60° C. for 30 seconds, and 72° C. for 30 seconds, followed by elongation reaction at 72° C. for 5 minutes. For a control, RT-PCR of GAPDH was performed using the same cDNA as above. The conditions for GAPDH involved denaturation at 95° C. for 2 minutes and then 22 cycles each involving 95° C. for 30 seconds, 55° C. for 30 seconds, and 72° C. for 30 seconds, followed by elongation reaction at 72° C. for 5 minutes. Each PCR product was electrophoresed on 2% agarose and then stained with ethidium bromide. The concentration of the band of the PCR product of CTLA-4 was calculated with the GAPDH band as a control using Image J. The concentrations of the PCR products for each concentration of PIP were compared for quantification.

The subject of assay [4] is cytotoxic T cells (CD8-positive cells) and regulatory T cells (Treg). Description: Ratio of cytotoxic T cells to Treg in the spleen of RKO-transplanted humanized NSG mice (flow cytometer). The format is in vivo, mouse. The settings on record: one week after administration. The procedure:
1×10^7 cells of human PBMC (Precision Bioservices Inc.) were intravenously transplanted to each NSG mouse (NOD.Cg-Prkdc^scidI/2rg^tm1Wj1/SzJ; Charles River Laboratories Japan, Inc.) to prepare a humanized NSG mouse. One week after the PBMC transplantation, 1×10^7 RKO cells (ATCC) were subcutaneously transplanted to each humanized NSG mouse. After the transplantation, CCC07-01 was intravenously administered at 2.3 or 9.2 mg/kg to the mouse when tumorigenesis was able to be confirmed. The tumor size was measured over time, and the tumor volume (mm^3) was calculated according to the expression: Tumor volume=[…]. One week after the CCC07-01 administration, the spleen was harvested and homogenized in 2% FBS/PBS to prepare a cell suspension. The spleen cells were stained with a fluorescently labeled anti-human CD4 antibody, anti-human CD8 antibody and anti-human Foxp3 antibody and analyzed for the numbers of cytotoxic T cells (CD8-positive cells) and regulatory T cells (Treg: CD4-positive and Foxp3-positive cells) using a flow cytometer. Statistical processing was performed by the Mann-Whitney U test, and the significance level was set to P<0.05.

One may read the pIC50 as −log10 of the IC50, conventionally taken in molar units.

For the compound `CC(=O)Nc1cn(C)c(C(=O)Nc2cc(C(=O)Nc3cn(C)c(C(=O)Nc4cn(C)c(C(=O)NCCC(=O)Nc5cc(C(=O)Nc6cc(C(=O)NCCCC(=O)Nc7cc(C(=O)Nc8cn(C)c(C(=O)NCCC(=O)Nc9cc(C(=O)Nc%10cc(C(=O)Nc%11ccc%12[nH]c(C(=O)N%13CC(CCl)c%14c%13cc(O)c%13ccccc%14%13)cc%12c%11)n(C)c%10)n(C)c9)n8)n(C)c7)n(C)c6)n(C)c5)n4)n3)n(C)c2)n1` (centres unmarked) [CCC07-01], the pIC50 in assay [1] was 6.72. Besides, in assay [2], the “expression of PD-L1” value is “markedly decreased”. The “expression of CTLA-4” value in assay [3] is given as “markedly decreased”. In addition, the figures for the “CD8-positive cell/Treg ratio in the spleen” value in assay [4] (2.3 mg/kg intravenous) and in assay [4] (9.2 mg/kg intravenous) were 116.5 and 323.2, respectively.
